Data reported in ChEMBL document CHEMBL1143799, “Synthesis and primary cytotoxicity evaluation of new imidazo[2,1-b]thiazole derivatives” (2007).

Experiments:
Format in all cases: functional
[1] = tested on: MDA-MB-231; assay: Growth inhibition of MDA-MB-231 cells after 48 hrs by SRB protein assay; conditions: Homo sapiens, MDA-MB-231, 48 h; for TGI: read-out: Log TGI (converted)
[2] = tested on: NCI/ADR-RES; assay: Growth inhibition of human NCI/ADR-RES cells after 48 hrs by SRB protein assay; conditions: for TGI: read-out: Log TGI (converted)
[3] = tested on: T47D; assay: Growth inhibition of human T47D cells after 48 hrs by SRB protein assay; conditions: for TGI: read-out: Log TGI (converted)
[4] = tested on: OVCAR-5; assay: Growth inhibition of human OVCAR5 cells after 48 hrs by SRB protein assay; conditions: OVCAR-5, 48 h; for TGI: read-out: Log TGI (converted)
[5] = tested on: TK-10; assay: Growth inhibition of human TK10 cells after 48 hrs by SRB protein assay; conditions: TK-10, 48 h; for TGI: read-out: Log TGI (converted)
[6] = tested on: NCI-H226; assay: Growth inhibition of human NCI-H226 cells after 48 hrs by SRB protein assay; conditions: NCI-H226, 48 h; for TGI: read-out: Log TGI (converted)
[7] = tested on: NCI-H460; assay: Cytotoxicity against human […] cells assessed as growth at 100 uM after 48 hrs by SRB protein assay relative to control; conditions: NCI-H460, 48 h, read-out: Activity
[8] = tested on: MCF7; assay: Cytotoxicity against human MCF7 cells assessed as growth at 100 uM after 48 hrs by SRB protein assay relative to control; conditions: MCF7, 48 h, read-out: Activity
[9] = tested on: HOP-92; assay: Growth inhibition of human HOP92 cells after 48 hrs by SRB protein assay; conditions: HOP-92, 48 h; for TGI: read-out: Log TGI (converted)
[10] = tested on: U-251; assay: Growth inhibition human U251 of cells after 48 hrs by SRB protein assay; conditions: U-251, 48 h; for TGI: read-out: Log TGI (converted)
[11] = tested on: ACHN; assay: Growth inhibition of human ACHN cells after 48 hrs by SRB protein assay; conditions: for TGI: read-out: Log TGI (converted)
[12] = tested on: K562; assay: Growth inhibition of human K562 cells after 48 hrs by SRB protein assay; conditions: K562, 48 h; for TGI: read-out: Log TGI (converted)
[13] = tested on: SK-MEL-2; assay: Growth inhibition of human SK-MEL-2 cells after 48 hrs by SRB protein assay; conditions: SK-MEL-2, 48 h; for TGI: read-out: Log TGI (converted)
[14] = tested on: MOLT-4; assay: Growth inhibition of human MOLT4 cells after 48 hrs by SRB protein assay; conditions: MOLT-4, 48 h; for TGI: read-out: Log TGI (converted)
[15] = tested on: SF-268; assay: Cytotoxicity against human SF268 cells assessed as growth at 100 uM after 48 hrs by SRB protein assay relative to control; conditions: SF-268, 48 h, read-out: Activity
[16] = tested on: OVCAR-8; assay: Growth inhibition of human OVCAR8 cells after 48 hrs by SRB protein assay; conditions: OVCAR-8, 48 h; for TGI: read-out: Log TGI (converted)
[17] = tested on: OVCAR-3; assay: Growth inhibition of human OVCAR-3 cells after 48 hrs by SRB protein assay; conditions: OVCAR-3, 48 h; for TGI: read-out: Log TGI (converted)
[18] = tested on: IGROV-1; assay: Growth inhibition of human IGROV1 cells after 48 hrs by SRB protein assay; conditions: IGROV-1, 48 h; for TGI: read-out: Log TGI (converted)
[19] = tested on: OVCAR-4; assay: Growth inhibition of human OVCAR4 cells after 48 hrs by SRB protein assay; conditions: OVCAR-4, 48 h; for TGI: read-out: Log TGI (converted)
[20] = tested on: A498; assay: Growth inhibition of human A498 cells after 48 hrs by SRB protein assay; conditions: A498, 48 h; for TGI: read-out: Log TGI (converted)

| Compound | GI50 [1] [µM] | TGI [1] [µM] | GI50 [3] [µM] | TGI [3] [µM] | GI50 [4] [µM] | TGI [4] [µM] | GI50 [9] [µM] | TGI [9] [µM] | GI50 [10] [µM] | TGI [10] [µM] | GI50 [11] [µM] | TGI [11] [µM] | GI50 [13] [µM] | TGI [13] [µM] | GI50 [14] [µM] | TGI [14] [µM] | GI50 [16] [µM] | TGI [16] [µM] | GI50 [17] [µM] | TGI [17] [µM] | further results |
| --- | --- | --- | --- | --- | --- | --- | --- | --- | --- | --- | --- | --- | --- | --- | --- | --- | --- | --- | --- | --- | --- |
| O=C(Cc1csc2nc(-c3ccc(Br)cc3)cn12)N/N=C/c1ccccc1O | 3.24 | 17 | 5.25 | 23.4 | 5.5 | 31.6 | 2.09 | 14.5 | 3.63 | 15.1 | 1.58 | 6.31 | 20.9 | 53.7 | 2.34 | 10.7 | 2.29 | 12.3 | 3.24 | 15.1 | GI50 [2]: 2.51 µM; TGI [2]: 6.76 µM; GI50 [5]: 2.04 µM; TGI [5]: 8.71 µM; GI50 [6]: 1.95 µM; TGI [6]: 7.76 µM; growth at 100 µM [7]: 0%; growth at 100 µM [8]: 7%; GI50 [12]: 0.0372 µM; TGI [12]: 2.95 µM; growth at 100 µM [15]: 50%; GI50 [18]: 1.05 µM; TGI [18]: 11.5 µM |
| COc1cccc(OC)c1/C=N/NC(=O)Cc1csc2nc(-c3ccc(Br)cc3)cn12 | 16.2 | 40.7 | 40.7 | > 100 | 50.1 | > 100 | 13.8 | 35.5 | 13.8 | 31.6 | 17 | 34.7 | 89.1 | > 100 | 3.47 | 8.13 | 11.5 | 38 | 15.8 | 58.9 | GI50 [19]: 28.2 µM; TGI [19]: > 100 µM; GI50 [2]: 12.9 µM; TGI [2]: 35.5 µM; GI50 [5]: 16.2 µM; TGI [5]: 51.3 µM; growth at 100 µM [7]: 15%; growth at 100 µM [8]: 27%; GI50 [12]: 2.95 µM; TGI [12]: 6.92 µM; growth at 100 µM [15]: 82%; GI50 [18]: 3.98 µM; TGI [18]: 26.9 µM |
| O=C(Cc1csc2nc(-c3ccc(Br)cc3)cn12)N/N=C/c1ccc(Cl)cc1Cl | 26.3 | > 100 | > 100 | > 100 | 28.8 | 67.6 | 28.2 | > 100 | 20.4 | 44.7 | 22.4 | 53.7 | 72.4 | > 100 | 1 | 26.3 | 18.6 | 50.1 | 34.7 | > 100 | GI50 [19]: 37.2 µM; TGI [19]: > 100 µM; GI50 [2]: 17.4 µM; TGI [2]: 52.5 µM; GI50 [6]: 31.6 µM; TGI [6]: 91.2 µM; growth at 100 µM [7]: 24%; GI50 [20]: 29.5 µM; TGI [20]: 63.1 µM; growth at 100 µM [8]: 46%; growth at 100 µM [15]: 94%; GI50 [18]: 15.8 µM; TGI [18]: 45.7 µM |
| O=C(Cc1csc2nc(-c3ccc(Br)cc3)cn12)N/N=C/c1ccccc1 | 12.9 | 57.5 | 37.2 | > 100 | 30.9 | > 100 | 12.3 | 37.2 | 12.9 | 32.4 | 10.7 | 25.7 | 33.1 | > 100 | 6.76 | 37.2 | 2.34 | 20.4 | 24 | 46.8 | GI50 [19]: 46.8 µM; TGI [19]: > 100 µM; GI50 [2]: 13.5 µM; TGI [2]: 67.6 µM; GI50 [5]: 14.1 µM; TGI [5]: 41.7 µM; growth at 100 µM [7]: 12%; growth at 100 µM [8]: 57%; TGI [12]: 7.94 µM; growth at 100 µM [15]: 65%; GI50 [18]: 11.2 µM; TGI [18]: 32.4 µM |
| O=C(Cc1csc2nc(-c3ccc(Br)cc3)cn12)N/N=C/c1ccc(O)cc1 | 10.5 | 43.7 | 31.6 | > 100 | 27.5 | > 100 | 19.1 | 69.2 | 21.4 | > 100 | 14.8 | 51.3 | 26.3 | 95.5 | 4.17 | 10 | 7.08 | 25.7 | 24 | 49 | GI50 [19]: > 100 µM; TGI [19]: > 100 µM; GI50 [2]: 21.4 µM; TGI [2]: 61.7 µM; GI50 [5]: 9.77 µM; TGI [5]: 33.1 µM; growth at 100 µM [7]: 11%; growth at 100 µM [8]: 22%; GI50 [12]: 1.82 µM; TGI [12]: 7.08 µM; growth at 100 µM [15]: 42%; GI50 [18]: 10.7 µM; TGI [18]: 39.8 µM |
| Nc1nc2[nH]cnc2c(=S)[nH]1 [THIOGUANINE] | 1.95 | 166 | 2.04 | 107 | 0.661 | 47.9 | 0.741 | 24 | 4.9 | 240 | 1.95 | 112 | 0.933 | 10.7 | 0.269 | 15.5 | 0.692 | 60.3 | 0.708 | 6.76 | GI50 [19]: 1.51 µM; TGI [19]: 100 µM; GI50 [5]: 1.05 µM; TGI [5]: 79.4 µM; GI50 [6]: 4.07 µM; TGI [6]: 97.7 µM; GI50 [20]: 6.76 µM; TGI [20]: 95.5 µM; GI50 [12]: 0.407 µM; TGI [12]: 70.8 µM; GI50 [18]: 4.79 µM; TGI [18]: 145 µM |
